From PubChem BioAssay (NCI)
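Growth conditions: 96-well plates. Treatment: test compound, 48 hours, 5 concentrations. Analysis: linear interpolation between bracketing concentrations; unreached endpoints set to highest concentration. GI50: concentration for 50% inhibition of growth. TGI marks complete inhibition of growth.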

Columns and labels:
Experiment in all cases: DTP human tumour cell line panel, 48 h; in the data active means GI50 below about 0.43 µM; inactive means the rest
[1] = test system: SK-MEL-2 melanoma
[2] = test system: MDA-MB-435
[3] = test system: HOP-92 NSCLC
[4] = test system: KM12 colon
[5] = test system: SF-295 CNS
[6] = test system: BT-549 breast
[7] = test system: SF-539 CNS
[8] = test system: CCRF-CEM leukemia
[9] = test system: UACC-62 melanoma
[10] = test system: M14 melanoma
[11] = test system: SW-620 colon
[12] = test system: MOLT-4 leukemia
[13] = test system: EKVX NSCLC
[14] = test system: HCC-2998 colon
[15] = test system: MALME-3M melanoma
[16] = test system: UACC-257 melanoma
[17] = test system: K-562 leukemia
[18] = test system: NCI/ADR-RES ovarian
[19] = test system: T-47D breast
[20] = test system: OVCAR-4 ovarian
[21] = test system: HCT-15 colon
[22] = test system: SK-OV-3 ovarian
[23] = test system: HOP-62 NSCLC
[24] = test system: SN12C renal
[25] = test system: NCI-H23 lung
[26] = test system: OVCAR-8 ovarian
[27] = test system: MCF7 breast
[28] = test system: HL-60(TB) leukemia
[29] = test system: A549 NSCLC
[30] = test system: MDA-MB-231 breast
[31] = test system: NCI-H226 lung
[32] = test system: SNB-75 CNS
[33] = test system: SK-MEL-5 melanoma
[34] = test system: NCI-H460 lung
[35] = test system: SF-268 CNS
[36] = test system: SK-MEL-28 melanoma
[37] = test system: NCI-H522 lung
[38] = test system: A498 renal
[39] = test system: HS 578T breast
[40] = test system: PC-3 prostate
[41] = test system: UO-31 renal
[42] = test system: RXF 393 renal
[43] = test system: DU-145 prostate
[44] = test system: SR leukemia
[45] = test system: SNB-19 CNS
[46] = test system: ACHN renal
[47] = test system: RPMI-8226 leukemia
[48] = test system: HT29 colon
[49] = test system: CAKI-1 renal
[50] = test system: LOX IMVI melanoma
[51] = test system: HCT-116 colon
[52] = test system: 786-0 renal
[53] = test system: COLO 205 colon
[54] = test system: IGROV1 ovarian
[55] = test system: OVCAR-3 ovarian
[56] = test system: U251 CNS
[57] = test system: OVCAR-5 ovarian
[58] = test system: TK-10 renal

COC(=O)Nc1nc2ccc(Oc3cccc(NC(=O)Nc4cc(C(F)(F)F)ccc4F)c3)cc2[nH]1
> 22.2 µM: TGI [3]
> 7.9 µM: TGI [27]
18.5 µM: TGI [28]
18.8 µM: TGI [2]
20.6 µM: TGI [37]
19.5 µM: TGI [1]
> 25 µM: TGI [4] | TGI [5] | TGI [6] | TGI [7] | TGI [8] | TGI [9] | TGI [10] | TGI [11] | TGI [12] | TGI [13] | TGI [14] | TGI [15] | TGI [16] | TGI [17] | TGI [18] | TGI [19] | TGI [20] | TGI [21] | TGI [22] | TGI [23] | TGI [24] | TGI [25] | TGI [26] | TGI [29] | TGI [30] | TGI [31] | TGI [32] | TGI [34] | TGI [35] | TGI [36] | TGI [38] | TGI [39] | TGI [40] | TGI [41] | TGI [42] | TGI [43] | TGI [44] | TGI [45] | TGI [46] | TGI [47] | TGI [48] | TGI [49] | TGI [50] | TGI [51] | TGI [52] | TGI [53] | TGI [54] | TGI [55] | TGI [56] | TGI [57] | TGI [58]
> 17.4 µM: TGI [33]
inactive: GI50 [1] 5.28 µM | GI50 [2] 5.78 µM | GI50 [3] 2.94 µM | GI50 [4] 7.57 µM | GI50 [5] 14.6 µM | GI50 [6] 23 µM | GI50 [7] > 21.6 µM | GI50 [8] 10.1 µM | GI50 [9] 8.11 µM | GI50 [10] 7.67 µM | GI50 [11] 10.3 µM | GI50 [12] 15.8 µM | GI50 [13] > 19.5 µM | GI50 [14] 13.2 µM | GI50 [15] 6.04 µM | GI50 [16] > 23.7 µM | GI50 [17] 0.452 µM | GI50 [18] 24.8 µM | GI50 [19] 8.64 µM | GI50 [20] 17.6 µM | GI50 [21] 11.8 µM | GI50 [22] 10.2 µM | GI50 [23] 13.3 µM | GI50 [24] 15.1 µM | GI50 [25] 11.3 µM | GI50 [26] > 25 µM | GI50 [27] 4.45 µM | GI50 [28] 4.98 µM | GI50 [29] 16 µM | GI50 [30] 11.4 µM | GI50 [31] > 15.3 µM | GI50 [32] 8.53 µM | GI50 [33] 5.97 µM | GI50 [34] 11.4 µM | GI50 [35] 18.5 µM | GI50 [36] 11.3 µM | GI50 [37] 5.73 µM | GI50 [38] 9.46 µM | GI50 [39] 7.47 µM | GI50 [40] 14.3 µM | GI50 [41] 14.3 µM | GI50 [42] 10.4 µM | GI50 [43] > 25 µM | GI50 [44] 10.2 µM | GI50 [45] > 25 µM | GI50 [46] 24.4 µM | GI50 [47] > 20.8 µM | GI50 [48] 9.11 µM | GI50 [49] 14.3 µM | GI50 [50] 9.08 µM | GI50 [51] 7.71 µM | GI50 [52] > 25 µM | GI50 [53] 8.82 µM | GI50 [54] 12.1 µM | GI50 [55] 14 µM | GI50 [56] 15.4 µM | GI50 [57] > 22.5 µM | GI50 [58] > 25 µM
